# Test results as given in PMC3389674, “Comparison of Soluble Guanylate Cyclase Stimulators and Activators in Models of Cardiovascular Disease Associated with Oxidative Stress” (Frontiers in Pharmacology, 2012).
# How the values were obtained:
# Assay type in all cases: in vivo, rat
# [1] = test system: Sprague Dawley rats; test: radiotelemetry heart rate and blood pressure after single oral dose
# Method: To identify equi-efficacious doses of GSK2181236A and BAY 60-4552, heart rate and blood pressure were monitored in male Sprague Dawley (SD) rats (∼500g, n = 4–6 per group) via surgically implanted radiotelemetry transmitters (PhysioTel PA-C40, Data Sciences International, St. Paul, MN, USA). Following oral gavage dosing (0.03–3.0 mg/kg), hemodynamic data were recorded every 5 min for 10 s and then averaged every hour.
# [2] = test system: Sprague Dawley rats; test: myocardial ischemia/reperfusion injury; conditions: for circulating levels of cardiac troponin I (cTnI) / infarct size as a percentage of the area at risk: acute p.o. 2 h prior to ischemia, GSK2181236A 0.1 and 1.0 mg/kg, BAY 60-4552 0.3 and 3 mg/kg, 24 h reperfusion
# Method: This study was performed at CV Dynamics, Inc. (Newark, NJ, USA). Male SD rats were obtained from Charles River Laboratories, Inc. (Kingston, NY, USA). At 2 months of age, rats were pre-medicated with atropine (0.04 mg/kg IM) then anesthetized with a loading dose of pentobarbital sodium (65 mg/kg IP). A supplemental dose of pentobarbital sodium (16.3 mg/kg IP) was administered 30–40 min after the initial anesthesia. Marcaine (0.025–0.05 mg/rat IM) was administered locally for pain control, and anesthetized rats were subjected to a thoracotomy at the fourth intercostal space. The left descending coronary artery was occluded using a 5-0 silk snare for 30 min, followed by reperfusion for 24 h. The coronary occlusion and reperfusion were verified by visual inspection (color change of myocardium from pale to pink) and by EKG monitoring [ST elevation and widening of the QRS; Gould BioTACH ECG module (Valley View, OH, USA) with a Tektronix TDS 220 monitor (Beaverton, OR, USA)]. A 2% lidocaine solution (2–3 mg/kg) was dripped directly onto the heart as needed for arrhythmia control during ischemia, and procainamide (12.5 mg/kg IP) was administered 15 min prior to reperfusion.
# Rats were orally gavaged with vehicle (0.5% HPMC, 5% DMSO, and 0.1% Tween 80; 10 mL/kg; n = 14), GSK2181236A (0.1 or 1.0 mg/kg; n = 11–14), or BAY 60-4552 (0.3 or 3.0 mg/kg; n = 10–12) 2 h prior to ischemia. Blood was collected at the initiation of ischemia and after 24 h reperfusion. Plasma was obtained for analysis of compound concentrations and levels of cardiac Troponin I (cTnI), a circulating biomarker of cardiac injury. Plasma concentrations of cTnI were determined using a commercially available ELISA (catalog #2010-2-HSP, Life Diagnostics, West Chester, PA, USA) according to the manufacturer’s instructions. Plasma compound concentrations were determined by LC/MS/MS (API 5000 triple quadrupole mass spectrometer, ABSciex, Foster City, CA, USA; Prominence liquid chromatographic system, Shimadzu, Columbia, MD, USA). Rats were anesthetized with a mixture of ketamine and xylazine (35 and 5 mg/kg, IM) and euthanized via exsanguination. Hearts were excised and perfused with 1% Evans blue dye in saline then perfused-fixed with 10% neutral buffered formalin (∼90 mmHg perfusion pressure). Hearts were sliced on the short axis from apex to base at 1–2 mm intervals, and the ischemic area (area at risk) was evaluated using Image Pro-Plus (Media Cybernetics, Inc., Bethesda, MD, USA). Fresh heart slices were stained with 1% triphenyltetrazolium and evaluated using Image Pro-Plus for determination of infarct size.
# [3] = test system: SHR-SP; test: chronic treatment of SHR-SP on high salt/fat diet: survival, blood pressure, renal and cardiac function; conditions: for CO (cardiac output) / EDV (end diastolic volume) / EF (ejection fraction) / ESV (end systolic volume) / SV (stroke volume) / LVM/BW (left ventricular mass to body weight ratio): echocardiography after 7 weeks of HSFD; for LVM/BW (left ventricular mass to body weight ratio): HSFD control 3.08 ± 0.06; for survival rate: HSFD control 14%; for urine output: HSFD control 111 ± 21; for MAP: HSFD control 192 ± 10; for effect on MAP compared to the HSFD controls: lower doses: 0.1 mg/kg/day GSK2181236A, 0.3 mg/kg/day BAY 60-4552
# Excerpt: The SHR-SP is an established model of genetic hypertension. […] As such, a cohort of HSFD SHR-SP was established as a model of cardiovascular disease associated with chronic oxidative stress in this study.
# A subgroup of animals (n = 45) was anesthetized with isoflurane and surgically implanted with radiotelemetry transmitters (PhysioTel PA-C40, Data Sciences International, St. Paul, MN, USA). The transmitter catheter was threaded through the femoral artery into the abdominal aorta. At 11–12 weeks of age, baseline blood pressure and heart rate were measured for 5 days (10 s recordings every 5 min) in normal caging, then rats were acclimated to metabolic caging for a minimum of 48 h before a basal 24 h urine sample and blood were collected. […] The ND group was maintained on normal chow and water throughout the study. […] Rats displaying signs of morbidity which included piloerection, lack of grooming, persistent body weight loss, lethargy, or seizure/convulsions, were promptly euthanized.
# Treatments were administered in respective diets starting 1 week after the initiation of HSFD. Urine collections were repeated on weeks 2, 4, 6, and 8 and blood was sampled in the morning after each 24 h collection period for assessment of renal function. Plasma creatinine and urine sodium, microalbumin (MALB), and creatinine were ascertained using an AU640 Chemistry Analyzer (Olympus America, Inc., Center Valley, PA, USA). Plasma compound concentrations were determined as described above.
# During week 7, cardiac function and morphometry were evaluated via transthoracic echocardiography. Rats were anesthetized with isoflurane (2–4% induction and 1–3% maintenance). Two-dimensional gray scale images of the left ventricle were obtained in the short axis plane at mid-ventricle level and in the parasternal long axis plane using a GE Vivid 7 system (GE Medical Systems, Milwaukee, WI, USA) and stored as digital cineloops. Pulse wave Doppler recordings from the LV outflow were obtained to determine heart rate. All images were analyzed by a single observer using a GE EchoPac (GE Medical Systems, Milwaukee, WI, USA). LV volumes were calculated as V=5/6(LVA×LVL) where LVA is area of LV chamber from the short axis view and LVL is the LV length from the long axis view at end diastole and end systole. […] Analysis was performed on three to five cardiac cycles.
compound,measurement,setting,value
COC(=O)Nc1c(N)nc(-c2nn(Cc3ccccc3F)c3ncccc23)nc1N [BAY 60-4552],"potency on heart rate and blood pressure, less potent than GSK2181236A","[1]; rat, in vivo",approximately threefold
same,highest no-effect dose on heart rate and blood pressure,[1]; single p.o. dose,0.3 mg/kg
same,mortality rate,"[2]; 0.3 mg/kg p.o., arrhythmia and trauma during occlusion",2 of 12
same,mortality rate,"[2]; 3 mg/kg p.o., cardiac puncture and trauma",2 of 14
same,circulating levels of cardiac troponin I (cTnI),[2],did not significantly alter
same,infarct size as a percentage of the area at risk,[2],did not significantly alter
same,reduction of MAP compared to HSFD controls,"[3]; 3 mg/kg/day for 7 weeks, P > 0.05",17 mmHg
same,CO (cardiac output),[3]; HSFD + 0.3 mg/kg/day,86 ± 6 mL/min
same,EDV (end diastolic volume),[3]; HSFD + 0.3 mg/kg/day,356 ± 21 µL
same,EF (ejection fraction),[3]; HSFD + 0.3 mg/kg/day,69 ± 2%
same,ESV (end systolic volume),[3]; HSFD + 0.3 mg/kg/day,111 ± 11 µL
same,SV (stroke volume),[3]; HSFD + 0.3 mg/kg/day,245 ± 14 µL
same,LVM/BW (left ventricular mass to body weight ratio),[3]; HSFD + 0.3 mg/kg/day,3.06 ± 0.07 mg/g
same,CO (cardiac output),[3]; HSFD + 3.0 mg/kg/day,89 ± 6 mL/min
same,EDV (end diastolic volume),[3]; HSFD + 3.0 mg/kg/day,379 ± 21 µL
same,EF (ejection fraction),[3]; HSFD + 3.0 mg/kg/day,67 ± 1%
same,ESV (end systolic volume),[3]; HSFD + 3.0 mg/kg/day,120 ± 9 µL
same,SV (stroke volume),[3]; HSFD + 3.0 mg/kg/day,259 ± 13 µL
same,LVM/BW (left ventricular mass to body weight ratio),[3]; HSFD + 3.0 mg/kg/day,2.85 ± 0.10 mg/g
same,survival rate,"[3]; HSFD, 0.3 mg/kg/day for 7 week",46%
same,urine output,"[3]; HSFD, 0.3 mg/kg/day for seven weeks",79 ± 11 mL/day
same,survival rate,"[3]; HSFD, 3 mg/kg/day for 7 week",69%
same,MAP,"[3]; HSFD, 3 mg/kg/day for 7 weeks",175 ± 1 mmHg
same,urine output,"[3]; HSFD, 3.0 mg/kg/day for seven weeks",56 ± 10 mL/day
same,sodium excretion,"[3]; HSFD, 3.0 mg/kg/day, HSFD control 26.4 ± 2.2",16 ± 2 mmol/day
same,MALB excretion,"[3]; HSFD, 3.0 mg/kg/day, HSFD control 282.4 ± 20.2",142 ± 42 mg/day
same,effect on MAP compared to the HSFD controls,[3],did not have any effect on MAP
"Cc1cc(-c2ccc(OC(F)(F)F)cc2)ccc1COc1ccccc1-c1cccc(-n2ncc(C(=O)O)c2C(F)(F)F)n1 [GSK2181236A, 1-(6-{2-[({3-methyl-4′-[(trifluoromethyl)oxy]-4-biphenylyl}methyl)oxy]phenyl}-2-pyridinyl)-5-(trifluoromethyl)-1H-pyrazole-4-carboxylic acid]",lowering of mean arterial pressure (MAP),[1]; high dose,5–10 mmHg
same,"potency on heart rate and blood pressure, more potent than BAY 60-4552","[1]; rat, in vivo",~3 fold
same,doses that increased heart rate and reduced blood pressure,[1]; single p.o. dose,≥ 0.3 mg/kg
same,highest no-effect dose on heart rate and blood pressure,[1]; single p.o. dose,0.1 mg/kg
same,mortality rate,"[2]; 0.1 mg/kg p.o., due to anesthesia",1 of 15
same,mortality rate,"[2]; 1 mg/kg p.o., arrhythmia during occlusion and unknown cause during reperfusion",2 of 13
same,circulating levels of cardiac troponin I (cTnI),[2],did not significantly alter
same,infarct size as a percentage of the area at risk,[2],did not significantly alter
same,reduction of MAP compared to HSFD controls,"[3]; 1.0 mg/kg/day for 7 week, not significant",9 mmHg
same,MALB excretion vs HSFD controls,[3]; 0.1 and 1.0 mg/kg/day,did not alter
same,sodium excretion vs HSFD controls,[3]; 0.1 and 1.0 mg/kg/day,did not alter
same,urine output vs HSFD controls,[3]; 0.1 and 1.0 mg/kg/day,did not alter
same,CO (cardiac output),[3]; HSFD + 0.1 mg/kg/day,76 ± 7 mL/min
same,EDV (end diastolic volume),[3]; HSFD + 0.1 mg/kg/day,331 ± 29 µL
same,EF (ejection fraction),[3]; HSFD + 0.1 mg/kg/day,67 ± 2%
same,ESV (end systolic volume),[3]; HSFD + 0.1 mg/kg/day,110 ± 11 µL
same,SV (stroke volume),[3]; HSFD + 0.1 mg/kg/day,222 ± 19 µL
same,LVM/BW (left ventricular mass to body weight ratio),[3]; HSFD + 0.1 mg/kg/day,2.69 ± 0.08 mg/g
same,CO (cardiac output),[3]; HSFD + 1.0 mg/kg/day,80 ± 5 mL/min
same,EDV (end diastolic volume),[3]; HSFD + 1.0 mg/kg/day,332 ± 22 µL
same,EF (ejection fraction),[3]; HSFD + 1.0 mg/kg/day,71 ± 1%
same,ESV (end systolic volume),[3]; HSFD + 1.0 mg/kg/day,98 ± 10 µL
same,SV (stroke volume),[3]; HSFD + 1.0 mg/kg/day,234 ± 14 µL
same,LVM/BW (left ventricular mass to body weight ratio),[3]; HSFD + 1.0 mg/kg/day,2.82 ± 0.07 mg/g
same,survival,"[3]; HSFD, 0.1 mg/kg/day for 7 week",did not improve survival
same,survival rate,"[3]; HSFD, 1.0 mg/kg/day for 7 week",69%
same,MAP,"[3]; HSFD, 1.0 mg/kg/day for 7 week",183 ± 7 mmHg
same,effect on MAP compared to the HSFD controls,[3],did not have any effect on MAP
